Measured values as given in patent US20200399390A1, “METHODS FOR PRODUCING LYMPHOCYTE PROGENITORS” (MURDOCH CHILDRENS RESEARCH INSTITUTE, priority 2017, published 2020).

Test system: B-lymphocytes
Experiment: B-cell progenitor production by co-culture on OP9 stromal cells
Assay type: cell-based, human
Description: Co-Culture Systems Involving DLL4 Stromal or OP9 Stromal Cells for Production of B-Cell Progenitors
Co-culture systems generally used alpha-MEM medium supplemented with 10˜20% fetal calf serum (FCS), Penicillin Streptomycin, L-glutamine and 2-Mercaptoethanol (0.1 mM).
Stromal cells were seeded into an appropriate number of wells of a multi-well plate and allowed to grow until they reached confluency.
At around day 15, cells were transferred onto confluent layers of OP9 or OP9-DLL4 stromal cells and cultured in the following conditions:
Medium: alpha-MEM medium supplemented with 5˜10% FCS, penicillin streptomycin, L-glutamine and 2-mercaptoethanol (0.1 mM)
Cytokines: SCF (50 ng/mL) and DAPT (10 uM).
Media was changed every 4˜5 days.
Every 7˜10 days, the culture was passaged onto new wells coated with fresh layers of stromal cells.
As an alternative to using OP9 stromal cells expressing DLL4 (DLL4-0P9) for B-cell progenitor production according to Example 1, which requires addition of a NOTCH1 inhibitor such as DAPT to the culture medium to permit B-cell development, OP9 stromal cells (without DLL4) can also be used (FIG. 20). This system generates a larger number of B-cell progenitors (FIG. 20B), a small fraction of which (˜1%) are IgM^+ (FIG. 20B). This frequency of IgM^+ cells is similar to that seen with cord blood CD34^+ cells cultured in similar systems.

In the case of `C[C@H](NC(=O)Cc1cc(F)cc(F)c1)C(=O)N[C@H](C(=O)OC(C)(C)C)c1ccccc1` [DAPT, N—[N-(3,5-difluorophenacetyl)-L-alanyl]-S-phenylglycine t-butyl ester], the “effect of presence of DAPT on development of B-lymphocytes” value (OP9 stromal cell co-culture, SCF (50 ng/mL) and DAPT (10 uM), from around day 15) is reported as “enhances the development of B-lymphocytes” and the “effect of addition of DAPT on B-cell progenitor generation” value (OP9 stromal cells (without DLL4), FIG. 20) is reported as “further enhanced”.
